Measured values: article PMC8445441, “Elucidating the mechanism by which synthetic helper peptides sensitize Pseudomonas aeruginosa to multiple antibiotics” (PLoS Pathogens, 2021)
Like-named read-outs stand apart in the source and are kept apart here. Blank lines part the entries; values can stand above or below the molecule they belong to.

Assays:
P. aeruginosa ATCC27853 = experiment: microbe, parasite or virus in culture; parameters: MICa: MIC of the antibiotic / MICac: MIC of the antibiotic in the combination: unit not given beside the values; conditions: for MIC: Pseudomonas aeruginosa, ATCC27853, 18 h, read-out: MICa: MIC of the antibiotic; for FICI / MICac: MIC of the antibiotic in the combination: strain ATCC27853; for FICI: antibiotic + D-11 (MICb/MICbc 32/4); for MICac: MIC of the antibiotic in the combination: with D-11 at MICbc 4, unit not given
Procedure, shortened: (§1)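 Triplicate microdilution MICs: MHB, two-fold series, equal-volume inoculum from ~1 × 10^6 CFU/mL suspension, 37 °C, 18 h, lowest concentration lacking visible growth.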

P. aeruginosa NR-31041 = experiment: microbe, parasite or virus in culture; parameters: MICa: MIC of the antibiotic / MICac: MIC of the antibiotic in the combination: unit not given beside the values; conditions: for MIC: Pseudomonas aeruginosa, NR31041, 18 h, read-out: MICa: MIC of the antibiotic; for FICI / MICac: MIC of the antibiotic in the combination: strain NR-31041; for FICI: antibiotic + D-11 (MICb/MICbc 64/4); for MICac: MIC of the antibiotic in the combination: with D-11 at MICbc 4, unit not given
Procedure, shortened: as §1

P. aeruginosa PA14 = experiment: microbe, parasite or virus in culture; parameters: MICa: MIC of the antibiotic / MICac: MIC of the antibiotic in the combination: unit not given beside the values; conditions: for MIC: Pseudomonas aeruginosa, PA14, 18 h, read-out: MICa: MIC of the antibiotic; for FICI / MICac: MIC of the antibiotic in the combination: strain PA14; for FICI: antibiotic + D-11 (MICb/MICbc 128/4); for MICac: MIC of the antibiotic in the combination: with D-11 at MICbc 4, unit not given
Procedure, shortened: as §1

P. aeruginosa PAK = experiment: microbe, parasite or virus in culture; parameters: MICa: MIC of the antibiotic / MICac: MIC of the antibiotic in the combination: unit not given beside the values; conditions: for MIC: Pseudomonas aeruginosa, 18 h, read-out: MICa: MIC of the antibiotic; for FICI / MICac: MIC of the antibiotic in the combination: strain PAK; for FICI: antibiotic + D-11 (MICb/MICbc 64/4); for MICac: MIC of the antibiotic in the combination: with D-11 at MICbc 4, unit not given
Procedure, shortened: as §1

P. aeruginosa NR-31040 = experiment: microbe, parasite or virus in culture; parameters: MICa: MIC of the antibiotic / MICac: MIC of the antibiotic in the combination: unit not given beside the values; conditions: for FICI: antibiotic + D-11 (MICb/MICbc 128/4); for MICac: MIC of the antibiotic in the combination: with D-11 at MICbc 4
Procedure, shortened: as §1

P. aeruginosa HM-214 = conditions: strain HM-214; antibiotic + D-11 (MICb/MICbc 128/4)
Procedure, shortened: as §1

P. aeruginosa AUMC-Pa-2 = conditions: strain AUMC-Pa-2; antibiotic + D-11 (MICb/MICbc 64/4)
Procedure, shortened: as §1

P. aeruginosa AUMC-Pa-1 = conditions: strain AUMC-Pa-1; antibiotic + D-11 (MICb/MICbc 128/4)
Procedure, shortened: as §1

[1] = system: clinical P. aeruginosa isolates; experiment: microbe, parasite or virus in culture; conditions: Pseudomonas aeruginosa, 18 h, antibiotic alone
Procedure, shortened: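 MIC is the lowest drug concentration showing no visible growth after 18 h at 37 °C. Two-fold dilutions in MHB were combined with an equal volume of bacterial suspension (about 1 × 10^6 CFU/mL), following CLSI broth microdilution, in triplicate.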

P. aeruginosa AUMC-Pa-3 = experiment: microbe, parasite or virus in culture; conditions: for MIC: Pseudomonas aeruginosa, AUMCPA3, 18 h, read-out: MICa: MIC of the antibiotic; for FICI / MICac: MIC of the antibiotic in the combination: strain AUMC-Pa-3; for FICI: antibiotic + D-11 (MICb/MICbc 128/4); for MICac: MIC of the antibiotic in the combination: with D-11 at MICbc 4, unit not given
Procedure, shortened: as §1

P. aeruginosa AUMC-Pa-6 = experiment: microbe, parasite or virus in culture; conditions: for FICI: antibiotic + D-11 (MICb/MICbc 64/4); for MICac: MIC of the antibiotic in the combination: with D-11 at MICbc 4
Procedure, shortened: as §1

P. aeruginosa AUMC-Pa-4 = experiment: microbe, parasite or virus in culture; conditions: for FICI: antibiotic + D-11 (MICb/MICbc 128/4); for MICac: MIC of the antibiotic in the combination: with D-11 at MICbc 4
Procedure, shortened: as §1

P. aeruginosa AUMC-Pa-5 = experiment: microbe, parasite or virus in culture; conditions: for FICI: antibiotic + D-11 (MICb/MICbc 64/4); for MICac: MIC of the antibiotic in the combination: with D-11 at MICbc 4
Procedure, shortened: as §1

P. aeruginosa PAO1 = experiment: microbe, parasite or virus in culture; conditions: PAO1; for MIC: Pseudomonas aeruginosa, PAO1, 18 h, read-out: MICa: the MIC of antibiotics, S3 Table, antibiotic alone; for FICI / MICac: the MIC for the antibiotic in the combination: S3 Table
Procedure, shortened: as §1

[2] = strain NR-31040, unit not given
[3] = read-out: Antibiotic sensibility (MIC) of clinical P. aeruginosa isolate AUMC-Pa-1, strain AUMC-Pa-1
[4] = read-out: Antibiotic sensibility (MIC) of clinical P. aeruginosa isolate AUMC-Pa-2, strain AUMC-Pa-2
[5] = read-out: Antibiotic sensibility (MIC) of clinical P. aeruginosa isolate AUMC-Pa-3, strain AUMC-Pa-3
[6] = read-out: Antibiotic sensibility (MIC) of clinical P. aeruginosa isolate AUMC-Pa-4, strain AUMC-Pa-4
[7] = read-out: Antibiotic sensibility (MIC) of clinical P. aeruginosa isolate AUMC-Pa-5, strain AUMC-Pa-5
[8] = read-out: Antibiotic sensibility (MIC) of clinical P. aeruginosa isolate AUMC-Pa-6, strain AUMC-Pa-6
[9] = read-out: Antibiotic sensibility (MIC) of clinical P. aeruginosa isolate HM-214, strain HM-214
[10] = read-out: Antibiotic sensibility (MIC) of clinical P. aeruginosa isolate NR-31040, strain NR-31040
[11] = read-out: Antibiotic sensibility (MIC) of clinical P. aeruginosa isolate NR-31041, strain NR-31041
[12] = strain AUMC-Pa-6, unit not given
[13] = strain AUMC-Pa-4, unit not given
[14] = strain AUMC-Pa-5, unit not given

- MIC (P. aeruginosa ATCC27853): 16 µM
- MICac: MIC of the antibiotic in the combination (P. aeruginosa ATCC27853): 0.5
- MIC (P. aeruginosa NR-31041): 16 µM
- MICac: MIC of the antibiotic in the combination (P. aeruginosa NR-31041): 0.25
- MIC (P. aeruginosa PA14): > 128 µM
- MICac: MIC of the antibiotic in the combination (P. aeruginosa PA14): 16
- MIC (P. aeruginosa PAK): 16 µM
- MICac: MIC of the antibiotic in the combination (P. aeruginosa PAK): 0.5
- MICa: MIC of the antibiotic (P. aeruginosa NR-31040; strain NR-31040, antibiotic alone, unit not given): 16
- MICac: MIC of the antibiotic in the combination (P. aeruginosa NR-31040; [2]): 1
- MIC [1, 3]: 32 µM
- MIC [1, 4]: 8 µM
- MIC [1, 5]: 8 µM
- MIC [1, 6]: 8 µM
- MIC [1, 7]: 32 µM
- MIC [1, 8]: 16 µM
- MIC [1, 9]: 8 µM
- MIC [1, 10]: 16 µM
- MIC [1, 11]: 16 µM
- MIC (P. aeruginosa AUMC-Pa-3): 8 µM
- MICac: MIC of the antibiotic in the combination (P. aeruginosa AUMC-Pa-3): 0.25
- MICa: MIC of the antibiotic (P. aeruginosa AUMC-Pa-6; strain AUMC-Pa-6, antibiotic alone, unit not given): 16
- MICac: MIC of the antibiotic in the combination (P. aeruginosa AUMC-Pa-6; [12]): 4
- MICa: MIC of the antibiotic (P. aeruginosa AUMC-Pa-4; strain AUMC-Pa-4, antibiotic alone, unit not given): 8
- MICac: MIC of the antibiotic in the combination (P. aeruginosa AUMC-Pa-4; [13]): 2
- MICa: MIC of the antibiotic (P. aeruginosa AUMC-Pa-5; strain AUMC-Pa-5, antibiotic alone, unit not given): 32
- MICac: MIC of the antibiotic in the combination (P. aeruginosa AUMC-Pa-5; [14]): 8
- MIC (P. aeruginosa PAO1): 16 µM
- MICac: the MIC for the antibiotic in the combination (P. aeruginosa PAO1; with 2 μM D-11): 0.0625 µM
- MICac: the MIC for the antibiotic in the combination (P. aeruginosa PAO1; with 4 μM D-11): 0.03125 µM
Structure (SMILES): CO[C@H]1/C=C/O[C@@]2(C)Oc3c(C)c(O)c4c(O)c(c5c(nc6cc(C)ccn65)c4c3C2=O)NC(=O)/C(C)=C\C=C\[C@H](C)[C@H](O)[C@@H](C)[C@@H](O)[C@@H](C)[C@H](OC(C)=O)[C@@H]1C [Rifaximin]
- FICI (P. aeruginosa ATCC27853): 0.156
- FICI (P. aeruginosa NR-31041): 0.078
- FICI (P. aeruginosa PA14): 0.094
- FICI (P. aeruginosa PAK): 0.094
- FICI (P. aeruginosa NR-31040; strain NR-31040): 0.094
- FICI (P. aeruginosa HM-214): 0.063
- FICI (P. aeruginosa AUMC-Pa-2): 0.094
- FICI (P. aeruginosa AUMC-Pa-1): 0.047
- FICI (P. aeruginosa AUMC-Pa-3): 0.063
- FICI (P. aeruginosa AUMC-Pa-6; strain AUMC-Pa-6): 0.313
- FICI (P. aeruginosa AUMC-Pa-4; strain AUMC-Pa-4): 0.281
- FICI (P. aeruginosa AUMC-Pa-5; strain AUMC-Pa-5): 0.313
- FICI (P. aeruginosa PAO1; antibiotic + 2 μM D-11): 0.066
- FICI (P. aeruginosa PAO1; antibiotic + 4 μM D-11): 0.127

- MIC (P. aeruginosa ATCC27853): > 128 µM
- MICac: MIC of the antibiotic in the combination (P. aeruginosa ATCC27853): 32
- MIC (P. aeruginosa NR-31041): > 128 µM
- MICac: MIC of the antibiotic in the combination (P. aeruginosa NR-31041): 16
- MIC (P. aeruginosa PA14): > 128 µM
- MICac: MIC of the antibiotic in the combination (P. aeruginosa PA14): 32
- MIC (P. aeruginosa PAK): > 128 µM
- MICac: MIC of the antibiotic in the combination (P. aeruginosa PAK): 32
- MIC (P. aeruginosa NR-31040; Pseudomonas aeruginosa, NR31040, 18 h, read-out: MICa: MIC of the antibiotic): > 128 µM
- MICac: MIC of the antibiotic in the combination (P. aeruginosa NR-31040; [2]): 64
- MIC [1, 3]: > 128 µM
- MIC [1, 4]: > 128 µM
- MIC [1, 5]: > 128 µM
- MIC [1, 6]: > 128 µM
- MIC [1, 7]: > 128 µM
- MIC [1, 8]: > 128 µM
- MIC [1, 9]: > 128 µM
- MIC [1, 10]: > 128 µM
- MIC [1, 11]: > 128 µM
- MIC (P. aeruginosa AUMC-Pa-3): > 128 µM
- MICac: MIC of the antibiotic in the combination (P. aeruginosa AUMC-Pa-3): 16
- MIC (P. aeruginosa AUMC-Pa-6; Pseudomonas aeruginosa, AUMCPA6, 18 h, read-out: MICa: MIC of the antibiotic): > 128 µM
- MICac: MIC of the antibiotic in the combination (P. aeruginosa AUMC-Pa-6; [12]): 64
- MIC (P. aeruginosa AUMC-Pa-4; Pseudomonas aeruginosa, AUMCPA4, 18 h, read-out: MICa: MIC of the antibiotic): > 128 µM
- MICac: MIC of the antibiotic in the combination (P. aeruginosa AUMC-Pa-4; [13]): 16
- MIC (P. aeruginosa AUMC-Pa-5; Pseudomonas aeruginosa, AUMCPA5, 18 h, read-out: MICa: MIC of the antibiotic): > 128 µM
- MICac: MIC of the antibiotic in the combination (P. aeruginosa AUMC-Pa-5; [14]): >128/128
- MIC (P. aeruginosa PAO1): > 128 µM
- MICac: the MIC for the antibiotic in the combination (P. aeruginosa PAO1; with 2 μM D-11): 32 µM
- MICac: the MIC for the antibiotic in the combination (P. aeruginosa PAO1; with 4 μM D-11): 16 µM
Structure (SMILES): COc1cc(Cc2cnc(N)nc2N)cc(OC)c1OC [Trimethoprim]
- FICI (P. aeruginosa ATCC27853): 0.250
- FICI (P. aeruginosa NR-31041): 0.125
- FICI (P. aeruginosa PA14): 0.156
- FICI (P. aeruginosa PAK): 0.188
- FICI (P. aeruginosa NR-31040; strain NR-31040): 0.281
- FICI (P. aeruginosa HM-214): 0.281
- FICI (P. aeruginosa AUMC-Pa-2): 0.188
- FICI (P. aeruginosa AUMC-Pa-1): 0.156
- FICI (P. aeruginosa AUMC-Pa-3): 0.094
- FICI (P. aeruginosa AUMC-Pa-6; strain AUMC-Pa-6): 0.313
- FICI (P. aeruginosa AUMC-Pa-4; strain AUMC-Pa-4): 0.156
- FICI (P. aeruginosa AUMC-Pa-5; strain AUMC-Pa-5): 0.563
- FICI (P. aeruginosa PAO1; antibiotic + 2 μM D-11): 0.188
- FICI (P. aeruginosa PAO1; antibiotic + 4 μM D-11): 0.188
